Results from US20190187155A1, “COMPOSITION AND METHODS FOR MEASURING ION CHANNEL ACTIVITY IN A CELL” (LIFE TECHNOLOGIES CORPORATION, priority 2016, published 2019).

System: CHO cells expressing the hERG ion channel
Experiment: Thallium influx assay of cells expressing the hERG potassium ion channel, loaded with thallium ion indicator
Format: cell-based
Details: for Fold Increase Over Baseline (fluorogenic response): loaded 60 minutes, potassium 10 mM; for Fold Increase Over Baseline (fluorogenic response) / detection of thallium ions (fluorescence dF/F over time): final thallium 2 mM; for change of fold increase (fluorogenic response) with dye loading concentration: dye concentration increased from 1 μM to 2 μM; for detection of thallium ions (fluorescence dF/F over time) / response (signal amplitude) post stimulus, Compound 8 relative to Compound 9: FIG. 10, average of 5-10 wells; for response (signal amplitude) post stimulus, Compound 8 relative to Compound 9: fold increase in signal post stimulus over baseline
Protocol: Component A: Thallium ion indicator dye in amount that will prepare 1-10 uM solution in normal Chloride Assay Buffer. Component B: Physiological (normal) Chloride Assay Buffer: NaCl 145 mM; KCl 2.5 mM; CaCl2 1.8 mM; MgCl2 1.0 mM; HEPES 20 mM; pH set to 7.4 with NaOH. Component C: Chloride Free Stimulus Buffer: 140 mM Na Gluconate; 2.5 mM K Gluconate; 1.8 […] Ca Gluconate; 1.0 mM Mg Gluconate; 10 mM HEPES; 25 mM K2SO4; 5.0 mM Tl2SO4.
Cells including an ion channel are cultured to about 75% confluence and in log-phase growth. The cells are then harvested using well-known cell culture techniques and buffers and replated into a 96 well plate at a density of, for example, 5,000-40,000 cells per well (e.g., 20,000 cells per well). The cells comprise the ion channel endogenously, or the cells can be engineered to comprise ion channels of a particular type. Methods of transfecting and/or transforming cells to express a particular type of protein are well known in the art and need not be repeated herein.
To prepare the dye loading buffer, Component A is prepared in assay buffer (Component B) at concentrations from 1-20 micromolar. Optional addition of 1-100 μg/mL Pluronic surfactant can aid-in dispersion and loading of dye and/or 1-10 mM probenecid to aid in retention of the dye. Next the cell culture media is aspirated from the cells in the 96 well plate and replaced with dye loading buffer and incubated at room temperature for 60-120 minutes. While the cells are incubating in loading buffer, stimulus buffer (Component C) is prepared for addition to the microplate. The loading buffer then is removed from the cells, and replaced with […] that contains no dye, to reduce background fluorescence from unincorporated dye in the solution. Next, the fluorescence from the cells is read on a spectrophotometer. For samples implementing a thallium indicator that emits in the green spectral region, the sample is excited with light in the range of 470-500 nm, and emission is read at 520 to 540 nm, with a filter cutoff of 515 nm. For samples implementing a thallium indicator that emits in the red spectral region, the sample is excited with light in the range of 545-565 nm and read at 580-600 nm, with a filter cutoff of 570 nm. A pre-stimulus “baseline” signal is measured at regular intervals for 10-30 seconds in advance of adding Stimulus Buffer (Component C). Component C is added to the cells in a 1:5 dilution at the indicated time, and the increase in fluorescence from the cells is measured over time.
Cells expressing the hERG potassium ion channel were assayed using the method described in Example 10 to compare the efficacy of two different isomeric thallium ion indicators. CHO cells expressing the hERG ion channel were assayed using methods described herein. Cells were loaded in assay buffer containing the indicated concentration of dye in Table 1 (i.e., 1 or 10 μM) washed with dye-free assay buffer (Component B) and the stimulus buffer (Component C) was delivered to the cells in a volume of 25 μL, added to 100 μL for a 5× dilution (Component C, containing 25 mM T K2SO4 and […]). In this particular example, the final concentration of potassium on the cells was 10 mM and the final concentration of thallium on the cells was 2 mM. […] Fluorescence data from the samples was plotted over time as fold increase in signal (post stimulus) over baseline (pre stimulus). Signal amplitude was compared from an average of 5-10 individual wells loaded with the dye indicated.
Cells expressing the hERG potassium ion channel were assayed using the thallium influx method described in Example 11 to compare the efficacy of various thallium ion indicators disclosed herein. Thallium indicators were prepared in loading buffer at the concentrations listed in Table 1 and loaded into cells for 60 minutes. […]

[1] = dye loading concentration 1 μM, excitation 470-500 nm, emission 520-540 nm
[2] = dye loading concentration 2 μM, excitation 470-500 nm, emission 520-540 nm

Row | SMILES | Fold Increase Over Baseline (fluorogenic response) [1] [fold] | Fold Increase Over Baseline (fluorogenic response) [2] [fold] | Fold Increase Over Baseline (fluorogenic response) (dye loading concentration 10 μM, excitation 545-565 nm, emission 580-600 nm) [fold] | change of fold increase (fluorogenic response) with dye loading concentration | detection of thallium ions (fluorescence dF/F over time) | response (signal amplitude) post stimulus, Compound 8 relative to Compound 9 | response (signal amplitude) post stimulus, Compound 8 relative to Compound 9 (listed as compound 8)
1 | COc1cc(NC(=O)c2ccc3c(c2)C2(OC3=O)c3ccc(OC(C)=O)cc3Oc3cc(OC(C)=O)ccc32)ccc1N(CC(=O)OCOC(C)=O)CC(=O)OCOC(C)=O [Compound 6, bis(acetoxymethyl) 2,2′-((4-(3′,6′-diacetoxy-3-oxo-3H-spiro[isobenzofuran-1,9′-xathene]-6-carboxamido)-2-methoxyphenyl)azanediyl)diacetate] | 3.7 | 2.8 |  |  |  |  | 
2 | COc1ccc(NC(=O)c2ccc3c(c2)C2(OC3=O)c3cc(F)c(OC(C)=O)cc3Oc3cc(OC(C)=O)c(F)cc32)cc1N(CC(=O)OCOC(C)=O)CC(=O)OCOC(C)=O [Compound 4, bis(acetoxymethyl) 2,2′-((5-(3′,6′-diacetoxy-2′,7′-difluoro-3-oxo-3H-spiro[isobenzofuran-1,9′-xanthene]-6-carboxamido)-2-methoxyphenyl)azanediyl)diacetate] | 1.5 | 1.4 |  |  |  |  | 
3 | COc1cc(NC(=O)c2ccc3c(c2)C2(OC3=O)c3cc(F)c(OC(C)=O)cc3Oc3cc(OC(C)=O)c(F)cc32)ccc1N(CC(=O)OCOC(C)=O)CC(=O)OCOC(C)=O [Compound 7, bis(acetoxymethyl) 2,2′-((4-(3′,6′-diacetoxy-2′,7′-difluroro-3-oxo-3H-spiro[isobenzofuran-1,9′-xanthene]-6-carboxamido)-2-methoxyphenyl)azanediyl)diacetate] | 2.3 | 1.5 |  |  |  |  | 
4 | COc1cc(-c2c3ccc(=[N+](C)C)cc-3oc3cc(N(C)C)ccc23)ccc1N(CC(=O)OCOC(C)=O)CC(=O)OCOC(C)=O.[Br-] [Compound 1, N-(9-(4-(bis(2-(acetoxymethoxy)-2-oxoethyl)amino)-3-methoxyphenyl)-6-(dimethylamino)-3H-xanthen-3-ylidene)-N-methylmethanaminium bromide] |  |  | 2.7 |  |  |  | 
5 | COc1cc(NC(=O)c2ccc3c(c2)C(=O)OC32c3ccc(OC(C)=O)cc3Oc3cc(OC(C)=O)ccc32)ccc1N(CC(=O)OCOC(C)=O)CC(=O)OCOC(C)=O [Compound 5, bis(acetoxymethyl) 2,2′-((4-(3′,6′-diacetoxy-3-oxo-3H-spiro[isobenzafuran-1,9′-xanthene]-5-carboxamido)-2-methoxyphenyl)azanediyl)diacetate] | 3.7 | 3.1 |  | decreased significantly |  |  | 
6 | COc1ccc(NC(=O)c2ccc3c(c2)C(=O)OC32c3ccc(OC(C)=O)cc3Oc3cc(OC(C)=O)ccc32)cc1N(CC(=O)OCOC(C)=O)CC(=O)OCOC(C)=O [Compound 2, bis(acetoxymethyl) 2,2′-((5-(3′,6′-diacetoxy-3-oxo-3H-spiro[isobenzofuran-1,9′-xanthene]-5-carboxamido)-2-methoxyphenyl)azanediyl)diacetate] | 1.2 | 1.3 |  | little to no change |  |  | 
7 | COc1ccc(NC(=O)c2ccc3c(c2)C2(OC3=O)c3ccc(OC(C)=O)cc3Oc3cc(OC(C)=O)ccc32)cc1N(CC(=O)OCOC(C)=O)CC(=O)OCOC(C)=O [Compound 3, bis(acetoxymethyl) 2,2′-((5-(3′,6′-diacetoxy-3-oxo-3H-spiro[isobenzofuran-1,9′-xanthene]-6-carboxamido)-2-methoxyphenyl)azanediyl)diacetate] | 1.1 | 0.8 |  |  |  |  | 
8 | COc1cc(NC(=O)c2ccc3c(c2)C(=O)OC32c3cc(F)c(OC(C)=O)cc3Oc3cc(OC(C)=O)c(F)cc32)ccc1N(CC(=O)OCOC(C)=O)CC(=O)OCOC(C)=O [Compound 8, bis(acetoxymethyl) 2,2′-((4-(3′,6′-diacetoxy-2′,7′-difluoro-3-oxo-3H-spiro[isobenzofuran-1,9′-xanthene]-5-carboxamido)-2-methoxyphenyl)azanediyl)diacetate] | 3.4 | 3.4 |  | not affected | detected the presence of thallium ions | far more sensitive to thallium ions than Compound 9 | larger response (signal amplitude)
9 | COc1ccc(NC(=O)c2ccc3c(c2)C(=O)OC32c3cc(F)c(OC(C)=O)cc3Oc3cc(OC(C)=O)c(F)cc32)cc1N(CC(=O)OCOC(C)=O)CC(=O)OCOC(C)=O [Compound 9, bis(acetoxymethyl) 2,2′-((5-(3′,6′-diacetoxy-2′,7′-difluoro-3-oxo-3H-spiro[isobenzofuran-1,9′-xanthene]-5-carboxamido)-2-methoxyphenyl)azanediyl)diacetate] | 2.0 | 2.0 |  | not affected | detected the presence of thallium ions |  | 
